Literature values, collected in patent US20130310903A1, “Anti-Depression Light-Wave Device and Usage Thereof” (priority 2012, published 2013).
Read-outs that look alike come from different tables or passages of the source.

Conditions: 12-week administration; for CGI outcome Worse: share of patients

## Fc1ccc([C@@H]2CCNC[C@H]2COc2ccc3c(c2)OCO3)cc1 [Paxil, Paroxetine]
20 mg
  CGI outcome Minimally: 33%
  CGI outcome Much Improved: 18%
  CGI outcome No Change: 35%
  CGI outcome Very Much: 7%
  CGI outcome Worse: 7%
40 mg
  CGI outcome Minimally: 29%
  CGI outcome Much Improved: 22%
  CGI outcome No Change: 22%
  CGI outcome Very Much: 20%
  CGI outcome Worse: 7%
60 mg
  CGI outcome Minimally: 34%
  CGI outcome Much Improved: 24%
  CGI outcome No Change: 19%
  CGI outcome Very Much: 20%
  CGI outcome Worse: 3%
